Data: US20110098240A1, “PHARMACEUTICAL COMPOSITION COMPRISING A SGLT2 INHIBITOR IN COMBINATION WITH A DPP-IV INHIBITOR” (BOEHRINGER INGELHEIM INTERNATIONAL GMBH, priority 2007, published 2011)

How the values were obtained:
[1] = metformin on its own, in the diabetic; cited from earlier work
[2] = oral glucose tolerance test in overnight fasted rats; assay type: in vivo, male Sprague Dawley rats (Crl:CD(SD)); details: single oral dose 30 min before oral glucose load 2 g/kg; Cpd. A 1 mg/kg, dapagliflozin 0.3 mg/kg, combination at same doses; non-diabetic rats, n=5/group; blood glucose up to 120 min
Experimental: The following example show the beneficial effect on glycemic control of the combination of a SGLT2 inhibitor and a DPP IV inhibitor according to the present invention as compared to the respective monotherapies. All experimental protocols concerning the use of laboratory animals are reviewed by a federal Ethics Committee and approved by governmental authorities. According to this example an oral glucose tolerance test is performed in overnight fasted male Sprague Dawley rats (Crl:CD(SD)) with a body weight of about 200 g. A pre-dose blood sample is obtained by tail bleed. Blood glucose is measured with a glucometer, and the animals are randomized for blood glucose (n=5/group). Subsequently, the groups receive a single oral administration of either vehicle alone (0.5% aqueous hydroxyethylcellulose containing 0.015% Polysorbat 80) or vehicle containing either the SGLT2 inhibitor or the DPPIV inhibitor or the combination of the SGLT2 inhibitor with the DPPIV inhibitor. The animals receive an oral glucose load (2 g/kg) 30 min after compound administration. Blood glucose is measured in tail blood 30 min, 60 min, 90 min, and 120 min after the glucose challenge. Glucose excursion is quantified by calculating the reactive glucose AUC. The data are presented as mean±S.E.M. Statistical comparisons are conducted by Student's t test.
“Cpd. […]

SMILES | average improvement in the HbA1c value [1] | reduction of glucose excursion (reactive glucose AUC) [2]
CN(C)C(=N)N=C(N)N [metformin] | 1.0-1.5% | –
CCOc1ccc(Cc2cc([C@@H]3O[C@H](CO)[C@@H](O)[C@H](O)[C@H]3O)ccc2Cl)cc1 [dapagliflozin, Dapagliflozin] | – | 31%
CC#CCn1c(N2CCC[C@@H](N)C2)nc2c1c(=O)n(Cc1nc(C)c3ccccc3n1)c(=O)n2C [Cpd. A, 1-[(4-methyl-quinazolin-2-yl)methyl]-3-methyl-7-(2-butyn-1-yl)-8-(3-(R)-amino-piperidin-1-yl)-xanthine] | – | 25%
